Laboratory results: publication PMC4327905 (Chemico-biological interactions, 2015)
Structures can show the parent of a compound that is named as a salt.

The compounds below were run against T1, transthyretin (Homo sapiens, UniProt P02766) (assay: ANS fluorescence displacement).
Type: binding

Row | SMILES | Kd [nM]
1 | O=S(=O)(O)Oc1ccc(-c2ccc(Cl)cc2)c(Cl)c1 [4-PCB 8 sulfate, 2,4′-dichloro-4-sulfooxy-biphenyl] | 4.3

Each compound was assayed against T1, transthyretin (assay: acid-induced amyloid fibril formation, turbidity at […] nm, […] compound and […] TTR).
Type: biochemical

Row | SMILES | Fibril Formation (%) [% fibril formation]
2 | Oc1cccc(-c2ccc(Cl)cc2)c1 [3′-OHPCB 3, 4′-chloro-biphenyl-3-ol] | 52.3
3 | O=S(=O)(O)Oc1cccc(-c2ccc(Cl)cc2)c1 [3′-PCB 3 sulfate, 4-chloro-3′-sulfooxy-biphenyl] | 30.7
4 | Oc1ccc(-c2cccc(Cl)c2)cc1Cl [4-OHPCB 11, 3,3′-dichloro-biphenyl-4-ol] | 7.5
5 | O=S(=O)(O)Oc1ccc(-c2cccc(Cl)c2)cc1Cl [4-PCB 11 sulfate, 3,3′-dichloro-4-sulfooxy-biphenyl] | 8.3
6 | O=S(=O)(O)Oc1ccc(-c2ccc(Cl)c(Cl)c2)c(Cl)c1 [4-PCB 33 sulfate, 2,3′,4′-trichloro-4-sulfooxy-biphenyl] | 12.7
7 | Oc1c(Cl)cc(-c2ccc(Cl)c(Cl)c2)cc1Cl [4′-OHPCB 79, 3,3′,4′,5-tetrachloro-biphenyl-4-ol, reference compound] | 32.2
8 | O=S(=O)(O)Oc1ccc(-c2ccc(Cl)cc2)cc1 [4′-PCB 3 sulfate, 4-chloro-4′-sulfooxy-biphenyl] | 37.2
9 | O=S(=O)(O)Oc1ccc(-c2cc(Cl)ccc2Cl)cc1Cl [4′-PCB 26 sulfate, 2,3′,5-trichloro-4′-sulfooxy-biphenyl] | 10.5
10 | O=C(O)c1ccccc1Nc1cccc(C(F)(F)F)c1 [Flufenamic acid, reference compound] | 22.3
